The target in the assay is Scavenger receptor class B member 1 (Mus musculus) (UniProt Q61009). The assay can be described thus: activators of SR-BI-mediated HDL uptake, dose response, cell-based, ldlA[mSR-BI] CHO, DiI fluorescence, cherry-pick (AID 602191).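 On AC40: potency of activators raising HDL uptake.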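 On activation (HDL uptake increase): 0% = median of DMSO wells and 100% = twice the DMSO signal.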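 On all read-outs here: cell fluorescence from internalized DiI-labeled HDL after washing.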 The note with it: ldlA[mSR-BI] CHO cells, 3 h; for activation (HDL uptake increase): at 35 µM (top of the series).
Chain of Scavenger receptor class B member 1 (Mus musculus) (Q61009 whole entry, looked up): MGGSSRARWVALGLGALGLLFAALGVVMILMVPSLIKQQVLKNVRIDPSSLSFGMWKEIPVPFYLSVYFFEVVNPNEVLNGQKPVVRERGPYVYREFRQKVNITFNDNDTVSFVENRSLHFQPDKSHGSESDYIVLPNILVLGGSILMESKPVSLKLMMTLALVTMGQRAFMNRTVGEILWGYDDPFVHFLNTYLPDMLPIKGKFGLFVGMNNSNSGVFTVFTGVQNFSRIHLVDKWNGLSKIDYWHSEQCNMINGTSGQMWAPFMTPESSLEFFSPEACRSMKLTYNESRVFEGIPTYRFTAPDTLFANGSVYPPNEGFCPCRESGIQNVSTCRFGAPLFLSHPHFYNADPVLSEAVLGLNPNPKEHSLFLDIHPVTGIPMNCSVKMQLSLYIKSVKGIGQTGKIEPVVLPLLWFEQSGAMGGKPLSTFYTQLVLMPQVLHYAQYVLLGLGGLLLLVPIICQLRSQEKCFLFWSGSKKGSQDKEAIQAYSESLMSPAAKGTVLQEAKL

Structures are written as SMILES. Calls of active or inactive are those of the source.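 How the source made its calls: active means fitted curve reaches 40% activation at a concentration no higher than the top valid tested dose; inconclusive means flat fit between 30% and 70% activation, or poor fit; inactive means uptake decrease, flat fit within 30% of zero, the rest.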 Starred links: 1 amine or outer side, 2 acyl side, 3 side chain; linkers in the order of their positions; H or OH if unused. Non-standard residues stand in square brackets, D forms with d. Residues, ends and D or L forms follow the SMILES beside them. ξ: configuration not given here. X1 = CCCCCCC[C@H](O)C[C@@H](N[*:1])[C@@H](O)C(=O)[*:2]; X3 = COc1ccc(CCCC(N[*:1])C(=O)[*:2])cc1; ξThr(3R) = C[C@@H](O)C(N)C(=O)O; NMeN = CN[C@@H](CC(N)=O)C(=O)O; X2 = C/C=C(/N[*:1])C(=O)[*:2]; Dhb = C/C=C(\N)C(=O)O; Sar = CNCC(=O)O

With `Cc1ccc(N(CC(=O)N2CC(=O)Nc3ccccc32)S(=O)(=O)c2ccc3c(c2)OCCO3)cc1`, the activation (HDL uptake increase) is -11.9% (inactive).

Consider `COc1cccc(OCc2cc(C(=O)NC3CCOCC3)no2)c1`, for which the activation (HDL uptake increase) was -16.2% (inactive).

For the compound `Cc1ccc(C(c2nnnn2C2CCCCC2)N2CCN3CCCC3C2)cc1` (stereo not drawn), the activation (HDL uptake increase) was -9.01% (inactive).

In the case of `COc1ccccc1C(=O)NCC(=O)NCc1cc(=O)n(C)c(=O)n1C`, the activation (HDL uptake increase) was -3.18% (inactive).

In the case of `COc1ccc(N2CC(NS(=O)(=O)c3cccnc3)CC2=O)cc1` (stereo not drawn), the activation (HDL uptake increase) was -6.57% (inactive).

Take `O=C(Cc1ccsc1)N1CCN(S(=O)(=O)c2cccc(F)c2)CC1`: the activation (HDL uptake increase) was -4.56% (inactive).

For the compound `O=C(NCC(=O)N1CCN(c2ccccc2)CC1)c1ccc(Br)o1`, the activation (HDL uptake increase) was -14.4% (inactive).

For the compound `COc1ccc(N2C(=O)C(CC(=O)Nc3ccc(F)cc3)N(CCc3cccs3)C2=O)cc1` (stereo not drawn), the activation (HDL uptake increase) was -4.44% (inactive).

Turning to `Cc1ccc(S(=O)(=O)CCC(=O)OCC(=O)Nc2cc(S(=O)(=O)N3CCOCC3)ccc2Cl)cc1`, the activation (HDL uptake increase) is -6.57% (inactive).

As for `O=C1CCC(=O)N1c1ccc(S(=O)(=O)Nc2cccc(Br)c2)cc1`, the activation (HDL uptake increase) is -7.52% (inactive).

With `CCOC(=O)C1CCCN(S(=O)(=O)c2ccc(S(=O)(=O)N3CCCC3)cc2)C1` (stereo not drawn), the activation (HDL uptake increase) is -3.5% (inactive).

Consider `COc1cc(-n2c(C)nc3cc(C(=O)NCC4CCCO4)ccc32)cc(OC)c1OC` (stereo not drawn), for which the activation (HDL uptake increase) was -12.1% (inactive).

Regarding `Cn1c(SCC(=O)N2CCCCCC2)nc2c(c1=O)SCC2`, the activation (HDL uptake increase) was -10.7% (inactive).

With `CCc1nc(SCC(=O)Nc2ccc([N+](=O)[O-])cc2)n[nH]1`, the activation (HDL uptake increase) is -10.4% (inactive).

Take `Cc1ccc(SCC(=O)NNC(=O)CCS(=O)(=O)c2ccc(C)cc2)cc1`: the activation (HDL uptake increase) is 0.551% (inactive).

As to `COc1ccc(C(=O)NNS(=O)(=O)c2ccccc2)cc1OC`, the activation (HDL uptake increase) is -10.5% (inactive).

`CN(C)CCCNC(=O)/C=C/c1ccc2c(c1)OCO2`: the activation (HDL uptake increase) was -4.26% (inactive).

As to `O=C(Cc1ccc(NC(=O)C2CCN(C(=O)C3CC3)CC2)cc1)Nc1ccc(C(=O)N2CCOCC2)cc1`, the AC40 was > 35 µM (inactive).

With `COc1ccc(CN(C(=O)c2cnccn2)C(C(=O)Nc2ccc(F)cc2)c2ccccc2)cc1` (stereo not drawn), the activation (HDL uptake increase) was -4.64% (inactive).

Take `COc1ccc(S(=O)(=O)N2CCOCC2)cc1NC(=O)COC(=O)C1CC2CCCC(C1)C2=O` (stereo not drawn): the activation (HDL uptake increase) is -6.79% (inactive).

`Cc1cc(C)nc(Nc2ncc(O)n2-c2ccccc2)n1`: the activation (HDL uptake increase) was -7.64% (inactive).

Turning to `Cc1ccc2nc(N(CCCN(C)C)C(=O)c3ccc(S(=O)(=O)N4CCOCC4)cc3)sc2c1`, the activation (HDL uptake increase) was -2.75% (inactive).

`CCOc1ccc(S(=O)(=O)NCCc2cn3ccccc3n2)cc1`: the activation (HDL uptake increase) was 2.16% (inactive).

On to `CCCCNC(=O)CCCCC(=O)N/N=C/c1cccc(Cl)c1`, for which the activation (HDL uptake increase) is -17.4% (inactive).

As to `CCc1ccccc1NC(=O)CN1CCC(NC(=O)COC)CC1`, the activation (HDL uptake increase) was -1.48% (inactive).

With `CCc1nn(CC(=O)N2CCN(CC)CC2)c(=O)c2cccn12`, the activation (HDL uptake increase) is -9.62% (inactive).

Consider `CN(CC(=O)Nc1cccc(F)c1)C(=O)C1CC(=O)N(CCc2ccccc2)C1` (stereo not drawn), for which the activation (HDL uptake increase) is -13.2% (inactive).

`O=C1CCN(S(=O)(=O)c2ccccc2)CCN1CCOCc1cccc(F)c1`: the activation (HDL uptake increase) is 7.83% (inactive).

As for `COc1ccc(NC(=O)C(Sc2nnc3ccccn23)c2ccccc2)cc1Cl` (stereo not drawn), the activation (HDL uptake increase) is -16.3% (inactive).

For the compound `Cc1cc(C)c2[nH]c(=O)c(CN(CC3CCCO3)C(=O)c3cnccn3)cc2c1` (stereo not drawn), the activation (HDL uptake increase) was -7.36% (inactive).

Regarding `O=C1N(C2CCCC2)C[C@@H]2C[C@@H](c3cn[nH]c3-c3ccc(Cl)cc3)N3CCC[C@@]123`, the activation (HDL uptake increase) was 0.818% (inactive).

As to `COc1ccc(S(=O)(=O)N(C)C[C@H]2Oc3c(NC(=O)Nc4ccc(C(F)(F)F)cc4)cccc3C(=O)N([C@H](C)CO)C[C@@H]2C)cc1`, the AC40 was 33.2 µM.

`O=C(N1CCN(S(=O)(=O)c2ccc(Cl)cc2)CC1)n1ccnc1`: the activation (HDL uptake increase) was -2.88% (inactive).

For `Cc1ccc(NC(=O)CSCC(N)=O)cc1C`, the activation (HDL uptake increase) was -9.19% (inactive).

With `COc1ccccc1Cc1nnnn1CC(=O)O`, the activation (HDL uptake increase) was -7.37% (inactive).

Turning to `Cc1ccc(NC(=O)CSc2nc3nc(C)c(Br)cc3[nH]2)cc1F`, the activation (HDL uptake increase) is -7.04% (inactive).

With `CC(=O)c1cccc(S(=O)(=O)NCCCN2CCOCC2)c1`, the activation (HDL uptake increase) is -4.98% (inactive).

Turning to `O=C(CN1CCN(S(=O)(=O)c2ccc(F)cc2)CC1)Nc1ccc(F)cc1F`, the activation (HDL uptake increase) was 5.31% (inactive).

With `O=C(CC1C[C@H](C(=O)N2CCOCC2)[C@@]2(CCC3CCCC3)c3[nH]c4ccccc4c3CCN2C1=O)NCc1cccc(C(F)(F)F)c1` (stereo partly drawn), the activation (HDL uptake increase) is 25.1% (inactive).

Take `Cc1csc(NC(=O)Cc2ccccc2[N+](=O)[O-])n1`: the activation (HDL uptake increase) is 1.17% (inactive).

As for `CCOC(=O)N1CCC(NC(=S)Nc2ccc3nc(N4CCN(C)CC4)cc(C)c3c2)CC1`, the activation (HDL uptake increase) was -25.6% (inactive).

For the compound `COc1ccc(C(=O)NC(=O)CSc2nc3nc(C)cc(C)n3n2)cc1`, the activation (HDL uptake increase) was -8.5% (inactive).

For `C[C@H](CO)N1C[C@H](C)[C@H](CN(C)C)Oc2ccc(NS(=O)(=O)c3ccc(F)cc3)cc2CC1=O`, the activation (HDL uptake increase) was -7.7% (inactive).

`COc1cccc(CN2CCNC(=O)C2CC(=O)NCCCn2ccnc2)c1` (stereo not drawn): the activation (HDL uptake increase) is 13% (inactive).

For the compound `CC(C)N1CCc2[nH]c(=S)[nH]c(=O)c2C1`, the activation (HDL uptake increase) was -0.502% (inactive).

Turning to `CSCCC(NC(=O)c1ccco1)C(=O)NC1CCC(C)CC1` (stereo not drawn), the activation (HDL uptake increase) is -3.23% (inactive).

For `O=C(O)CN(Cc1ccco1)S(=O)(=O)c1ccc(F)cc1`, the activation (HDL uptake increase) is -1.5% (inactive).

As for `O=C(Cn1c(C(=O)NCCCN2CCOCC2)cc2sccc21)c1ccccc1`, the activation (HDL uptake increase) is 0.656% (inactive).

`C/C=C1\NC(=O)[C@H](CC(N)=O)N(C)C(=O)C([C@@H](C)O)NC(=O)C(CCCc2ccc(OC)cc2)NC(=O)[C@H](C(C)C)NC(=O)/C(=C\C)NC(=O)[C@H](O)[C@@H](C[C@@H](O)CCCCCCC)NC(=O)[C@H](C)NC(=O)CN(C)C(=O)[C@H](CCC(N)=O)NC1=O` (stereo partly drawn) (cyclo(A[X1][X2]V[X3][ξThr(3R)][NMeN][Dhb]Q[Sar])): the AC40 was 28 µM.

For the compound `C[C@@H]1CN([C@H](C)CO)C(=O)c2cc(NC(=O)Nc3ccc(C(F)(F)F)cc3)ccc2O[C@H]1CN(C)Cc1ccc(Cl)c(Cl)c1`, the activation (HDL uptake increase) was -0.198% (inactive).

In the case of `CC1CCc2c(C(=O)NCCN3CCOCC3)csc2C1` (stereo not drawn), the activation (HDL uptake increase) is -15.7% (inactive).

As to `COCCNC(=O)c1onc(CSc2cccc(C)c2)c1C(=O)O`, the AC40 was > 35 µM (inactive).

Consider `C[C@H](CO)N1C[C@H](C)[C@@H](CN(C)S(=O)(=O)c2ccccc2)Oc2ccc(NC(=O)Nc3ccc(C(F)(F)F)cc3)cc2C1=O`, for which the AC40 is 34.6 µM.

On to `CCOC(=O)N1CCN(C(=O)c2nn(C)c3c2CSc2ccccc2-3)CC1`, for which the activation (HDL uptake increase) is -12.2% (inactive).

As for `COC(=O)c1ccc([C@@H](O)[C@H](C)C(=O)CC(=O)OC(C)(C)C)cc1`, the activation (HDL uptake increase) is 4.09% (inactive).

As for `Cc1ccc(S(=O)(=O)NC(=O)COc2ccccc2C)c(C)c1`, the activation (HDL uptake increase) was 11.3% (inactive).

As to `COc1ccc(-n2nc(C(=O)N3CCN(Cc4ccc5c(c4)OCO5)CC3)c3ccccc3c2=O)cc1`, the activation (HDL uptake increase) is -5.05% (inactive).

Regarding `NC(=O)C1CCN(C(=O)C2CC(=O)N(Cc3ccccc3)C2)CC1` (stereo not drawn), the activation (HDL uptake increase) was -2.16% (inactive).

As to `CCC(=O)Nc1ccc(C(=O)NNC(=O)c2cccs2)cc1`, the activation (HDL uptake increase) is -6.45% (inactive).

`NCCCC[C@H]1CNC(=O)C(=O)N1CCc1cccc2ccccc12`: the activation (HDL uptake increase) was -5.05% (inactive).

As for `COCCN(CC(=O)Nc1cc(Cl)ccc1-n1cncn1)Cc1nc2ccccc2c(=O)[nH]1`, the activation (HDL uptake increase) is -4.92% (inactive).

As to `CCn1c(COC(=O)CNC(=O)c2ccccc2)nc2cc(S(=O)(=O)N(C)C)ccc21`, the activation (HDL uptake increase) was -13.2% (inactive).

As to `COC(=O)C(Cc1ccc(O)cc1)NC(=O)C1CCN(S(=O)(=O)c2ccc(C)cc2)CC1` (stereo not drawn), the activation (HDL uptake increase) was -2.45% (inactive).

Take `Cc1nc2c3ccccc3nc(NNC(=O)CCC(=O)N3CCN(c4ccccc4)CC3)n2n1`: the activation (HDL uptake increase) was 6.41% (inactive).

Regarding `O=C(COC(=O)/C=C/c1cccc(Cl)c1)NCCc1ccc(Cl)cc1Cl`, the activation (HDL uptake increase) was -1.95% (inactive).

As for `CCCCn1c(CN2CCN(C(=O)c3ccco3)CC2)nc2c1c(=O)n(C)c(=O)n2C`, the activation (HDL uptake increase) is 2.07% (inactive).

For the compound `CCO[C@H]1OC(C(=O)N2CCOCC2)=C[C@@H](c2ccccc2)[C@@H]1CCCO`, the activation (HDL uptake increase) was -6.57% (inactive).

As to `O=C(c1ccc(NS(=O)(=O)c2cccc([N+](=O)[O-])c2)cc1)N1CCN(C(=O)c2ccco2)CC1`, the activation (HDL uptake increase) was -14.9% (inactive).

For the compound `CC(C)Cc1cc(C(=O)NCc2ccco2)no1`, the activation (HDL uptake increase) is -10.4% (inactive).

Turning to `O=C(c1ccc(Cl)cc1)C1CCCN(Cc2ccc3ncccc3c2)C1` (stereo not drawn), the activation (HDL uptake increase) was 12.3% (inactive).

With `O=C(CC1NC(=O)NC1=O)Nc1ccc(Cl)cc1` (stereo not drawn), the AC40 is > 35 µM (inactive).

As for `O=C(C[C@H]1C/C=C\C[C@@H](Cc2ccc(F)cc2)C(=O)OC[C@H]2CCCN2C1=O)N[C@H](CO)Cc1ccccc1`, the activation (HDL uptake increase) was 6.35% (inactive).

Take `CCOC(CNC(=O)C1CCN(S(=O)(=O)c2ccc3nc4c(c(C(=O)O)c3c2)CCCCC4)CC1)OCC`: the activation (HDL uptake increase) was 5.08% (inactive).

The record behind these values is PubChem BioAssay AID602191 (Broad Institute, 2012).
